Measurements reported in ChEMBL document CHEMBL3045199, “Synthesis of some (E)-6-[2-(furan-2-yl)ethenyl]-1,2,4-triazin-5-ones and their biological evaluation as antitumor agents” (2013).

Experiments:
Format in all cases: functional
[1] = system: NCI-H460; experiment: Cytotoxicity against Homo sapiens (human) NCI-H460 cells assessed as growth inhibition at 10 uM after 24 hr; settings: NCI-H460, 24 h, read-out: GI
[2] = system: OVCAR-3; experiment: Cytotoxicity against Homo sapiens (human) OVCAR3 cells assessed as growth inhibition at 10 uM after 24 hr; settings: OVCAR-3, 24 h, read-out: GI
[3] = Cytotoxicity against Homo sapiens (human) colon cancer cells after 48 hr by SRB assay; settings: Cancer cell lines
[4] = system: SF-539; experiment: Cytotoxicity against Homo sapiens (human) SF539 cells assessed as growth inhibition at 10 uM after 24 hr; settings: SF-539, 24 h, read-out: GI
[5] = system: OVCAR-5; experiment: Cytotoxicity against Homo sapiens (human) OVCAR5 cells assessed as growth inhibition at 10 uM after 24 hr; settings: OVCAR-5, 24 h, read-out: GI
[6] = system: T47D; experiment: Cytotoxicity against Homo sapiens (human) T47D cells assessed as growth inhibition at 10 uM after 24 hr; settings: read-out: GI
[7] = Cytotoxicity against Homo sapiens (human) ovarian cancer cells after 48 hr by SRB assay; settings: Cancer cell lines
[8] = system: SF-295; experiment: Cytotoxicity against Homo sapiens (human) SF295 cells assessed as growth inhibition at 10 uM after 24 hr; settings: SF-295, 24 h, read-out: GI
[9] = system: SNB-19; experiment: Cytotoxicity against Homo sapiens (human) SNB19 cells assessed as growth inhibition at 10 uM after 24 hr; settings: SNB-19, 24 h, read-out: GI
[10] = system: NCI-H226; experiment: Cytotoxicity against Homo sapiens (human) NCI-H226 cells assessed as growth inhibition at 10 uM after 24 hr; settings: NCI-H226, 24 h, read-out: GI
[11] = system: SW-620; experiment: Cytotoxicity against Homo sapiens (human) SW620 cells assessed as growth inhibition at 10 uM after 24 hr; settings: SW-620, 24 h, read-out: GI
[12] = system: MOLT-4; experiment: Cytotoxicity against Homo sapiens (human) MOLT4 cells assessed as growth inhibition at 10 uM after 24 hr; settings: MOLT-4, 24 h, read-out: GI
[13] = read-out: LC50 (the source's name)

**Q.** Which inhibition of growth at 10 µM [1] does the source give for Nc1cc(-c2ccc(Cl)cc2)nn1-c1nc(=O)c(/C=C/c2ccco2)n[nH]1 here?
**A.** Its inhibition of growth at 10 µM is 79.6%.

**Q.** What about the inhibition of growth at 10 µM [2] of the same compound?
**A.** The inhibition of growth at 10 µM was 62.1%.

**Q.** What about the GI50 [3] of the same compound?
**A.** The GI50 was 4.27 µM.

**Q.** What about the TGI [3] of the same compound?
**A.** Its TGI is 22 µM.

**Q.** And the CC50 [3, 13]?
**A.** Its CC50 is over 100 µM.

**Q.** What about the inhibition of growth at 10 µM [4] of the same compound?
**A.** The inhibition of growth at 10 µM was 44.6%.

**Q.** What about the inhibition of growth at 10 µM [5] of the same compound?
**A.** Its inhibition of growth at 10 µM is 39.1%.

**Q.** And the inhibition of growth at 10 µM [6]?
**A.** Its inhibition of growth at 10 µM is 37.3%.

**Q.** And the GI50 [7]?
**A.** The GI50 was 3.8 µM.

**Q.** What about the TGI [7] of the same compound?
**A.** The TGI was 43.1 µM.

**Q.** What about the CC50 [7, 13] of the same compound?
**A.** Its CC50 is 89.7 µM.

**Q.** What about the inhibition of growth at 10 µM [8] of the same compound?
**A.** The inhibition of growth at 10 µM was 90.1%.

**Q.** And the inhibition of growth at 10 µM [9]?
**A.** Its inhibition of growth at 10 µM is 42.4%.

**Q.** What about the inhibition of growth at 10 µM [10] of the same compound?
**A.** Its inhibition of growth at 10 µM is 52.6%.

**Q.** What about the inhibition of growth at 10 µM [11] of the same compound?
**A.** The inhibition of growth at 10 µM was 50.8%.

**Q.** What about the inhibition of growth at 10 µM [12] of the same compound?
**A.** Its inhibition of growth at 10 µM is 55.6%.
